In one assay the target is T1, FLT1 (VEGFR1) (Homo sapiens, UniProt P17948).
T1 construct: VEGFR1 (residues R781-I1338); made in house
Nature of the assay: VEGFR1 Kinase-Glo kinase assay. The assay is classed as biochemical. How it is done:
(§1) The FLT3 inhibitors, BPR1J-340 and AC220, were synthesized by our laboratory. The histone deacetylase inhibitor vorinostat (SAHA) was purchased from SelleckBio (Houston, TX, USA). All inhibitors were dissolved in dimethylsulfoxide (DMSO) at a stock concentration of 10 mM. The anti-FLT3 (sc-480, Santa Cruz Biotechnology, Santa Cruz, CA, USA), anti-pFLT3-Tyr591 (#3461, Cell Signaling Technology, Beverly, MA, USA) anti-STAT5 (#9363, Cell Signaling Technology), anti-pSTAT5–Tyr694 (#9351, Cell Signaling Technology), anti-cleaved poly ADP-ribose polymerase (PARP) (#9542, Cell Signaling Technology), anti-Mcl-1 (#4572, Cell Signaling Technology), anti-caspase 3 (#9662, Cell Signaling Technology) and anti-β-actin (Gtx110546, GeneTex, Irvine, CA, USA) antibodies were purchased for Western blotting analysis. The preparation of recombinant proteins, FLT3 (residues Y567-S993), VEGFR1 (residues R781-I1338) and VEGFR2 (residues V789-V1356), for biochemical kinase assay was described previously. The VEGFR3 (residues M800-Y1363) proteins were purchased from Upstate (Billerica, MA, USA).
(§2) The FLT3 and VEGFR1/2 Kinase-Glo kinase assays were performed as reported by our earlier study. […] The kinase inhibition profiling and inhibitory activity of FLT3-D835Y, CSF1R, and TRKA were determined by Invitrogen SelectScreen® kinase profiling service (Carlsbad, California, USA).
(In Kinase-Glo more light means more ATP remaining.)

The target in the next assay is Aurora B kinase (Homo sapiens, UniProt Q96GD4). Description: Aurora B kinase inhibition. Type of assay: biochemical. As for the experimental part:
BPR1J-340, a urea-substituted 3-phenyl-1H-5-pyrazolylamine-based compound, was designed through chemical modification of sulfonamide series of derivatives (BPR1J-097 series) by a structure-activity relationship (SAR) study (Fig. 1), [32]. For kinase inhibition specificity screening, BPR1J-340 was tested against 59 protein kinases covering the major oncogenic kinases of human protein kinome. […] In addition, BPR1J-340 inhibited TRKA, which is associated with the growth and metastasis of breast cancers, with an IC50 value of 8 nM. Given the high similarity of the ATP binding pockets of FLT3 and the Aurora kinases, the inhibitory activity toward Aurora A and Aurora B were measured. […] Taken together, BPRJ-340 is a selective kinase inhibitor with in vitro activity against FLT3, VEGFR2, VEGFR3 and TRKA receptor tyrosine kinases.

The test system of the next assay is HCC827. Nature of the assay: Cell viability MTS assay. The assay is classed as cell-based. Conditions: Homo sapiens; HCC827, non-leukemia; read-out: Proliferation GI50. How it is done:
(§3) Cell viability was assessed with an MTS assay as carried out as the method described previously. Cells were seeded in 96-well plates at a density of 10,000 cells per well for 16 hours and then treated with vehicle or various concentrations of compound in medium. The change in viable cells was quantitated using the MTS method (Promega, Madison, WI, USA) according to the manufacturer's recommended protocol or by cell counting under a microscope. The GC50 value was defined as the amount of compound that caused a 50% reduction in cell viability in comparison with DMSO-treated (vehicle) control and was calculated using Prism version 4 software (Graph-Pad Software, Inc., San Diego, CA, USA). The data are presented as the mean ± S.D. from three independent experiments. Cell growth were measured by trypan blue dye exclusion method. Cells (1×10^4 mL^−1) were cultured in 12-well plates for 24 hours and then treated with different amounts of test compound and the same volumes of vehicle for 72 hours. The number of viable cells was counted by trypan blue dye staining using a hemocytometer at the indicated time point after drug treatment. The result was expressed as the mean ± S.D. from triplicate determinations.
(In general: Tetrazolium dyes change colour on reduction, which living cells bring about.)

The next assay relates to HCT-116. Nature of the assay: Cell viability MTS assay. The assay is classed as cell-based. The settings on record: Homo sapiens; HCT-116, non-leukemia; read-out: Proliferation GI50. As for the experimental part: as §3
The target in a further assay is FLT3-ITD (Homo sapiens, UniProt P36888, ITD). Description: FLT3 phosphorylation in transfected HEK293T cells, Western blot. The settings on record: HEK293T cells expressing FLT3-ITD, 1 hr, FLT3 ligand 50 ng/mL 5 min. Type of assay: cell-based. How it is done: (§4) Cells were lysed in lysis buffer (50 mM Tris, pH 8.0, 150 mM NaCl, 1% Triton X-100, 0.5% sodium deoxycholate, 0.1% SDS, 1 mM sodium orthovanadate, 1 mM PMSF, and 1 mM DTT). Protein lysates were resolved by SDS-PAGE and transferred onto a polyvinylidene difluoride (PVDF) membrane (Millipore, Bedford, MA, USA). The membranes were immunoblotted with appropriate antibodies and detected using the SuperSignal reagent (Pierce, Rockford, IL, USA) followed by exposure to X-ray film.
FLT3-ITD, sequence (P36888 27-993, change not shown): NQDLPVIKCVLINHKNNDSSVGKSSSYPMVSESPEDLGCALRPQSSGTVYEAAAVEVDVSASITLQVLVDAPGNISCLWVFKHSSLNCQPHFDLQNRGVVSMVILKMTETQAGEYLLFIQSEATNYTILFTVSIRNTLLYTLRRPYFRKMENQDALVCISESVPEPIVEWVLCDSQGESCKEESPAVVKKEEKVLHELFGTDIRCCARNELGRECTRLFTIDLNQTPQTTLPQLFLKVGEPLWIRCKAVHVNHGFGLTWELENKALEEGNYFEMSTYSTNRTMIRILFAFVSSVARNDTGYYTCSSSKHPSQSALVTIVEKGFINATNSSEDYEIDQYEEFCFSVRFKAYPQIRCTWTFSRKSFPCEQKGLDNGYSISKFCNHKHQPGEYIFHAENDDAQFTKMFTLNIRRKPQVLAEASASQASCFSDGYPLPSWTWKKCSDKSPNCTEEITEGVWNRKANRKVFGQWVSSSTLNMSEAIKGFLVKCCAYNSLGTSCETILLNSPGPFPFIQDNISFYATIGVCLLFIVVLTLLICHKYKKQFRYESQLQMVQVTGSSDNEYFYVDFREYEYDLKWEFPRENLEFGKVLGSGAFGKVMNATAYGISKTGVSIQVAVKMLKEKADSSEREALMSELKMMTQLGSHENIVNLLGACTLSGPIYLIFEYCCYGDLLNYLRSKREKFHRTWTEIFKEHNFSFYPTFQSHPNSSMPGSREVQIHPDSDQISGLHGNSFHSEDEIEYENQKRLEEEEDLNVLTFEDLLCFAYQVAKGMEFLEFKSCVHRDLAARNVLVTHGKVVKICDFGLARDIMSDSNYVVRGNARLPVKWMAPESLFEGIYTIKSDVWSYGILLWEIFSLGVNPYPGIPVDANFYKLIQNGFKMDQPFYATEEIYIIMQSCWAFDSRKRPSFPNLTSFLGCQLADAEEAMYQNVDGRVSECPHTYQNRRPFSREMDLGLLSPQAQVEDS
(§5) To address whether BPR1J-340 was able to inhibit the FLT3 signaling pathway in FLT3-driven cells, MV4;11 cells were treated with different concentrations of BPR1J-340 for 1 hour, and the phosphorylation status of FLT3 and STAT5 (Signal Transducer and Activator of Transcription 5), a critical down-stream modulator that plays a major role in FLT3-ITD signal transduction for cell expansion and survival, was examined by Western blot analysis. […] To investigate the difference in sensitivity between FLT3-WT and the activating mutants FLT3-ITD and FLT3-D835Y to BPR1J-340, HEK293T cells engineered to express FLT3-WT or mutants FLT3 (FLT3-ITD, FLT3-D835Y) were analyzed. […]
(§6) Figure 2 BPR1J-340 inhibits FLT3-dependent signaling. […] The phosphorylation status of FLT3 and STAT5 were evaluated by Western blot analysis. […] The FLT3 phosphorylation status in the transfected cells was evaluated by Western blot analysis.

The next assay concerns the target T2, FLT3-WT (Homo sapiens, UniProt P36888).
T2 construct: expressed in transfected cells; host or cells: HEK293T
Described as above. The assay is classed as cell-based. Conditions: HEK293T cells expressing FLT3-WT, 1 hr, FLT3 ligand 50 ng/mL 5 min. As for the experimental part: as §4, §5, §6

In the next assay the target is KDR (VEGFR2) (Homo sapiens, UniProt P35968). Nature of the assay: VEGFR2 Kinase-Glo kinase assay. The assay is classed as biochemical. Set-up: VEGFR2 (residues V789-V1356); made in house. As for the experimental part:
as §1, §2

KDR (VEGFR2), sequence (P35968 789-1356): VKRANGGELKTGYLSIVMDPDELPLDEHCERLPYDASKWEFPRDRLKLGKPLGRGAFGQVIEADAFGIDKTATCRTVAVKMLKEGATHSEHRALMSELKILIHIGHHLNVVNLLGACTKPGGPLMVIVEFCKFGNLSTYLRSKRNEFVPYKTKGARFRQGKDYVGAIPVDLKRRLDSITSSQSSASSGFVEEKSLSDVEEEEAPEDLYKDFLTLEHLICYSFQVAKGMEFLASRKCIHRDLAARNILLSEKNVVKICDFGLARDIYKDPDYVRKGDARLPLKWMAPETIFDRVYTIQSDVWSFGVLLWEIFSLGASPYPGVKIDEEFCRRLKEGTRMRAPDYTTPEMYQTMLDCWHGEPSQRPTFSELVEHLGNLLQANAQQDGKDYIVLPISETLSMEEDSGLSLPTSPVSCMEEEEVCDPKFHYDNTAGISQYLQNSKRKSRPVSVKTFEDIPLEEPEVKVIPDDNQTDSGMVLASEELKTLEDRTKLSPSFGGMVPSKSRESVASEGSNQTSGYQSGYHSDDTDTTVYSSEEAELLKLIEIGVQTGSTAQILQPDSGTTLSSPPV
T2 sequence (P36888 27-993): as the sequence (P36888 27-993, change not shown) above
T1 sequence (P17948 781-1338): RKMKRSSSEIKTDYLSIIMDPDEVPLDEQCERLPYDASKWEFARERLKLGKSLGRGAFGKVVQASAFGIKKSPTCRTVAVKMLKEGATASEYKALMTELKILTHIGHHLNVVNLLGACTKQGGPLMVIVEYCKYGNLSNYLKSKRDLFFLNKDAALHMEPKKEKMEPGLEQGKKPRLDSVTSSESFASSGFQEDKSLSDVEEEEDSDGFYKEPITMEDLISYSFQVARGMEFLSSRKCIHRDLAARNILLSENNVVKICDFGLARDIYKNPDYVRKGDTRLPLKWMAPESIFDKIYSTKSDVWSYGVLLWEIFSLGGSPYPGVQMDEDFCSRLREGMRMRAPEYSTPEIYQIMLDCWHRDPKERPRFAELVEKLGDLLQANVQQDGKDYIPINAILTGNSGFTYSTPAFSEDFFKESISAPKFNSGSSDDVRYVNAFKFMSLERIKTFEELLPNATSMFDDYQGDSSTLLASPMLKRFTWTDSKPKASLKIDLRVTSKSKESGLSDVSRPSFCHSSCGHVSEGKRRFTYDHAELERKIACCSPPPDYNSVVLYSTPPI
Aurora B kinase, sequence (Q96GD4 whole entry): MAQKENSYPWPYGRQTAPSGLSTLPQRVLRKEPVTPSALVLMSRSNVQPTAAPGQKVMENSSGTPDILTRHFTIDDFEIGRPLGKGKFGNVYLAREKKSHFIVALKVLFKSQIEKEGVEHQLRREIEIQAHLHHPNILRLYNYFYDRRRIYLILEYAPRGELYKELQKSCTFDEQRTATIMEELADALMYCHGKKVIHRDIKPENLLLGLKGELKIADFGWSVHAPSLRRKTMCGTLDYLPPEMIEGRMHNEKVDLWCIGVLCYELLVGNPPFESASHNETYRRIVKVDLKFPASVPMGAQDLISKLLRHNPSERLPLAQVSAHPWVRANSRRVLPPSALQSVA

Broadly, the IC50 is the concentration that gives 50% inhibition. Regarding `CCc1cc(NC(=O)NCc2ccc(-c3cc(NC(=O)c4ccc(CN5CCN(C)CC5)cc4)[nH]n3)cc2)no1` [BPR1J-340, N1-(3-4-[([(5-ethyl-3-isoxazolyl)amino]carbonylamino)methyl]phenyl-1H-5-pyrazolyl)-4-[(4-methylpiperazino)methyl]benzamide], the IC50 on FLT1 (VEGFR1) was 164 ± 24 nM; at Aurora B kinase, 1340 nM; at FLT3-ITD it was 10 to 100 nM; against FLT3-WT, 10 to 100 nM; against KDR (VEGFR2) it was 28 ± 9 nM. Further, the GI50 in the assay on HCC827 turned out to be 2470 nM; in the assay on HCT-116, 9330 nM.

The record behind these values is publication PMC3885398, “Evaluation of the Antitumor Effects of BPR1J-340, a Potent and Selective FLT3 Inhibitor, Alone or in Combination with an HDAC Inhibitor, Vorinostat, in AML Cancer” (PLoS ONE, 2014).
